Counter-ions that a name gives are not always drawn.
Test system: Human Platelet Rich Plasma
Assay: ADP induced Aggregation of Human Platelet Rich Plasma
Assay type: cell-based
Details: 37° C., half-maximal inhibition, read-out: Human Platelet Agg IC50
Description: Healthy aspirin free donors were randomly selected from a pool of volunteers. The harvesting of platelet rich plasma and subsequent ADP induced platelet aggregation assays were performed as described in Zucker, M. B., "Platelet Aggregation Measured by the Photometric Method", Methods in Enzymology 169(1989):117-133. Standard venipuncture techniques using a butterfly allowed the withdrawal of 45 mL of whole blood into a 60 mL syringe containing 5 mL of 3.8% trisodium citrate. Following thorough mixing in the syringe, the anti-coagulated whole blood was transferred to a 50 mL conical polyethylene tube. The blood was centrifuged at room temperature for 12 minutes at 200 xg to sediment non-platelet cells. Platelet rich plasma was removed to a polyethylene tube and stored at room temperature until used. Platelet poor plasma was obtained from a second centrifugation of the remaining blood at 2000 xg for 15 minutes. Platelet counts are typically 300,000 to 500,000 per microliter. Platelet rich plasma (0.45 mL) was aliquoted into siliconized cuvettes and stirred (1100 rpm) at 37° C. for 1 minute prior to adding 50 uL of pre-diluted test compound. […] Aggregation was recorded for 3 minutes in a Payton dual channel aggregometer (Payton Scientific, Buffalo, N.Y.). […] All compounds were tested in duplicate and half-maximal inhibition (IC50) was calculated graphically from the dose response curve.

IC50	SMILES
200 µM	N=C(N)NCCCC(=O)NCCC(=O)NC(CC(=O)O)c1cccnc1 (racemic) [Example 5, (±) β-[[3-[[4-[(aminoiminomethyl)amino]-1-oxobutyl]amino]-1-oxopropyl]amino]-3-pyridinepropanoic acid, bistrifluoroacetate salt]
20 µM	N=C(N)NCCCCC(=O)NCC(=O)NC(CC(=O)O)c1cccnc1 (stereo not drawn) [Example 1, β-[[2-[[5-[(aminoiminomethyl)amino]-1-oxopentyl]amino]-1-oxoethyl]amino]-3-pyridinepropanoic acid, bistrifluoroacetate salt]
